Laboratory results reported in ChEMBL document CHEMBL1201862, “PubChem BioAssay data set” (2004).
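Compound exposure: 48 hours, 5 concentrations, 96-well plates. GI50 marks 50% less growth.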 The source made the active and inactive calls. Cut-off read from the data, not from the text of the source: active = GI50 up to about 1.1 µM and inactive = higher.

What was measured:
Experiment in all cases: NCI anticancer screen, dose series, 48 h
HCC 2998 = tested on: HCC 2998
RXF 393 = tested on: RXF 393
HCT-15 = tested on: HCT-15
HL-60 = tested on: HL-60
M14 = tested on: M14
Malme-3M = tested on: Malme-3M
SK-MEL-2 = tested on: SK-MEL-2
ACHN = tested on: ACHN
SK-MEL-5 = tested on: SK-MEL-5
OVCAR-4 = tested on: OVCAR-4
OVCAR-5 = tested on: OVCAR-5
MDA-MB-231 = tested on: MDA-MB-231
LOX IMVI = tested on: LOX IMVI
SF-539 = tested on: SF-539
MCF7 = tested on: MCF7
MOLT-4 = tested on: MOLT-4
IGROV-1 = tested on: IGROV-1
UO-31 = tested on: UO-31
U-251 = tested on: U-251
A498 = tested on: A498

SMILES | GI50 (HCC 2998) | GI50 (RXF 393) | GI50 (HCT-15) [µM] | GI50 (HL-60) | GI50 (M14) | GI50 (Malme-3M) | GI50 (SK-MEL-2) | GI50 (ACHN) | GI50 (SK-MEL-5) | GI50 (OVCAR-4) | GI50 (OVCAR-5) | GI50 (MDA-MB-231) | GI50 (LOX IMVI) | GI50 (SF-539) | GI50 (MCF7) | GI50 (MOLT-4) | GI50 (IGROV-1) | GI50 (UO-31) | GI50 (U-251) | GI50 (A498)
C[N+](C)([O-])CCCNc1ccnc2cccc([N+](=O)[O-])c12 | 27.3 µM (inactive) | 18.7 µM (inactive) | 24.2 | 20.2 µM (inactive) | 37.7 µM (inactive) | 28.1 µM (inactive) | 19.8 µM (inactive) | 33.1 µM (inactive) | 16.1 µM (inactive) | 20.5 µM (inactive) | > 100 µM (inactive) | 53.5 µM (inactive) | 28.2 µM (inactive) | 22 µM (inactive) | 27.4 µM (inactive) | 20.2 µM (inactive) | 46 µM (inactive) | 46.5 µM (inactive) | 34.8 µM (inactive) | 51.3 µM (inactive)
CSC1(C(=O)O)C2CCC3C2CCC31 (stereo not drawn) | > 100 µM (inactive) | > 100 µM (inactive) | > 100 | 99.5 µM (inactive) | > 100 µM (inactive) | > 100 µM (inactive) | > 100 µM (inactive) | > 100 µM (inactive) | > 100 µM (inactive) | > 100 µM (inactive) | > 100 µM (inactive) | > 100 µM (inactive) | > 100 µM (inactive) | > 100 µM (inactive) | > 100 µM (inactive) | > 100 µM (inactive) | > 100 µM (inactive) | > 100 µM (inactive) | > 100 µM (inactive) | > 100 µM (inactive)
Cc1ccc(-c2c(C#N)c(S)n(NS(=O)(=O)c3ccccc3)c(=O)c2C#N)cc1 | 47 µM (inactive) | 41.1 µM (inactive) | 21.7 | 16.7 µM (inactive) | 29.9 µM (inactive) | 35.7 µM (inactive) | 43.8 µM (inactive) | 28.1 µM (inactive) | 25 µM (inactive) | 34.4 µM (inactive) | 65.9 µM (inactive) | 26.1 µM (inactive) | 28.5 µM (inactive) | 20.6 µM (inactive) | 28.6 µM (inactive) | 15.9 µM (inactive) | 23.7 µM (inactive) | 20.1 µM (inactive) | 24.8 µM (inactive) | 21.2 µM (inactive)
CCCN1C(=O)CN(S(=O)(=O)c2ccc(Cl)cc2)C1=O | > 100 µM (inactive) | > 100 µM (inactive) | > 100 | > 100 µM (inactive) | > 100 µM (inactive) | > 100 µM (inactive) | > 100 µM (inactive) | > 100 µM (inactive) | > 100 µM (inactive) | > 100 µM (inactive) | > 100 µM (inactive) | > 100 µM (inactive) | > 100 µM (inactive) | > 100 µM (inactive) | > 100 µM (inactive) | – | > 100 µM (inactive) | > 100 µM (inactive) | > 100 µM (inactive) | > 100 µM (inactive)
COC(=O)C(=O)C(C(=O)C(=O)Nc1nnc(S)[nH]1)c1nc2ccc([N+](=O)[O-])cc2nc1O (stereo not drawn) | > 100 µM (inactive) | > 100 µM (inactive) | > 100 | > 100 µM (inactive) | > 100 µM (inactive) | > 100 µM (inactive) | > 100 µM (inactive) | 86.9 µM (inactive) | > 100 µM (inactive) | > 100 µM (inactive) | > 100 µM (inactive) | > 100 µM (inactive) | > 100 µM (inactive) | > 100 µM (inactive) | 92.7 µM (inactive) | – | 91.4 µM (inactive) | 82.8 µM (inactive) | > 100 µM (inactive) | > 100 µM (inactive)
CC(C)(Cl)C(Br)CCC(Br)(CCl)C(Cl)CBr (stereo not drawn) | > 10 µM (inactive) | > 10 µM (inactive) | > 10 | > 10 µM (inactive) | > 10 µM (inactive) | > 10 µM (inactive) | > 10 µM (inactive) | > 10 µM (inactive) | > 10 µM (inactive) | > 10 µM (inactive) | > 10 µM (inactive) | > 10 µM (inactive) | > 10 µM (inactive) | > 10 µM (inactive) | > 10 µM (inactive) | > 10 µM (inactive) | > 10 µM (inactive) | > 10 µM (inactive) | > 10 µM (inactive) | > 10 µM (inactive)
CNNC1=NS(=O)(=O)c2cc(C#N)c(Cl)cc2S1 | > 10 µM (inactive) | > 10 µM (inactive) | > 10 | > 10 µM (inactive) | > 10 µM (inactive) | > 10 µM (inactive) | > 10 µM (inactive) | > 10 µM (inactive) | > 10 µM (inactive) | > 10 µM (inactive) | > 10 µM (inactive) | > 10 µM (inactive) | > 10 µM (inactive) | > 10 µM (inactive) | 0.00303 µM (active) | > 10 µM (inactive) | > 10 µM (inactive) | 1.68 µM (inactive) | > 10 µM (inactive) | > 10 µM (inactive)
